Among the data in patent publication US10336735B2, “Small molecule inhibitors of fibrosis” (THE CALIFORNIA INSTITUTE FOR BIOMEDICAL RESEARCH, priority 2014, dated 2019) are EC50 values, retold here.

A word on the EC50: it is the concentration giving half of the maximal effect. Higher therefore signals a less potent agent.

A value given as a limit tells only on which side of the number the result lay.

The test system of the assay is primary human lung fibroblasts and primary rodent HSCs. As to the kind of experiment: High content imaging assay (α-SMA staining, cell morphology) of fibroblast to myofibroblast transdifferentiation, confirmed by Western blot and RT-PCR. The conditions noted are these: Homo sapiens, Fibroblast; imaging and western based activity. The gist of the method:
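Primary human lung fibroblasts and primary rodent HSCs were serum-starved and then TGF-β-treated to drive transdifferentiation in 384-well format, with SB-431542 as positive control. Readouts were α-SMA immunofluorescence and cell morphology by high-content imaging, confirmed by Western blot and RT-PCR in 4-day, 4-point dose-response assays; EC50 values are graded.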
In general terms: In western blotting, separated proteins are transferred to a membrane and probed.
As for `C#Cc1ccc([C@]2(Cn3cncn3)OC[C@@H](COc3ccc(N4CCN(c5ccc(-n6cnn(CCC7(C)N=N7)c6=O)cc5)CC4)cc3)O2)cc1` [Compound 192], the EC50 was 0.5 to 5 µM.
In turn, `CCC(C)n1ncn(-c2ccc(N3CCN(c4ccc(OC[C@@H]5CO[C@@](Cc6ccnnc6)(c6cc(Cl)cc(Cl)c6)O5)cc4)CC3)cc2)c1=O` (stereo partly shown) [Compound 139] registered an EC50 below 0.5 µM.
The value for `CCC(C)n1ncn(-c2ccc(N3CCN(c4ccc(OC[C@@H]5CO[C@@](Cn6nc7ccccc7n6)(c6ccc(C#N)cc6C)O5)cc4)CC3)cc2)c1=O` (stereo partly shown) [Compound 50] was 0.5 to 5 µM; that for `CCC(C)n1ncn(-c2ccc(N3CCN(c4ccc(OC[C@@H]5CO[C@@](Cc6ccnnc6)(c6ccc(C#N)cc6)O5)cc4)CC3)cc2)c1=O` (stereo partly shown) [Compound 131] was above 30 µM; that for `CCC(C)n1ncn(-c2ccc(N3CCN(c4ccc(OC[C@@H]5CO[C@@](CCn6nccn6)(c6ccc(Cl)cc6Cl)O5)cc4)CC3)cc2)c1=O` (stereo partly shown) [Compound 52] was below 0.5 µM.
`O=c1n(-c2ccc(N3CCN(c4ccc(OC[C@@H]5CO[C@@](Cn6nccn6)(c6ccccc6)O5)cc4)CC3)cc2)cnn1CC1CCNCC1` [Compound 15] came in with an EC50 of 5 to 30 µM.
As to `CCC(C)n1ncn(-c2ccc(N3CCN(c4ccc(OC[C@@H]5CO[C@@](Cn6nccn6)(c6cccc(Cl)c6Cl)O5)cc4)CC3)cc2)c1=O` (stereo partly shown) [Compound 29], the EC50 was below 0.5 µM.
As for `CCC(C)n1ncn(-c2ccc(N3CCN(c4ccc(OC[C@@H]5CO[C@](Cc6ccnnc6)(c6ccc(OC(F)(F)F)cc6)O5)cc4)CC3)cc2)c1=O` (stereo partly shown) [Compound 115], the EC50 is 0.5 to 5 µM.
As to `CCC(C)n1ncn(-c2cccc(N3CCN(c4ccc(OC[C@@H]5CO[C@@](Cn6nccn6)(c6ccc(Cl)cc6Cl)O5)cc4)CC3)c2)c1=O` (stereo partly shown) [Compound 77], the EC50 was above 30 µM.
Regarding `CCC(C)n1ncn(-c2ccc(N3CCN(c4ccc(OC[C@@H]5CO[C@](Cc6ccnnc6)(c6ccc(C)cc6)O5)cc4)CC3)cc2)c1=O` (stereo partly shown) [Compound 118], the EC50 lay in the range of 5 to 30 µM.
The value for `N#Cc1cc(OC[C@H]2CO[C@](Cn3nccn3)(c3ccccc3)C2)ccc1N1CCN(c2ccc(-n3cnn(CC4CCCC4)c3=O)cc2)CC1` [Compound 146] was above 30 µM; that for `CCC(C)n1ncn(-c2ccc(N3CCN(c4ccc(OC[C@@H]5CO[C@@](Cc6ccnnc6)(c6cccc(OC)c6)O5)cc4)CC3)cc2)c1=O` (stereo partly shown) [Compound 128] was 0.5 to 5 µM.
Turning to `CCC(C)n1ncn(-c2ccc(N3CCN(c4ccc(OC[C@@H]5CO[C@@](Cn6cccn6)(c6ccc(C)cc6)O5)cc4)CC3)cc2)c1=O` (stereo partly shown) [Compound 97], the EC50 fell in the range of 5 to 30 µM.
As to `CC[C@@H](C)n1ncn(-c2ccc(N3CCN(c4ccc(OC[C@H]5CO[C@](Cn6cccn6)(c6ccc(C#N)cc6C)O5)cc4)CC3)cc2)c1=O` [Compound 175], the EC50 lay within 5 to 30 µM.
Regarding `CCC(C)n1ncn(-c2ccc(N3CCN(c4ccc(OC[C@@H]5CO[C@@](Cn6cccn6)(c6cccc(C#N)c6)O5)cc4)CC3)cc2)c1=O` (stereo partly shown) [Compound 88], the EC50 lay within 0.5 to 5 µM.
Regarding `CCC(C)n1ncn(-c2ccc(N3CCN(c4ccc(OC[C@@H]5CO[C@](Cc6ccnnc6)(c6cccc(OC)c6)O5)cc4)CC3)cc2)c1=O` (stereo partly shown) [Compound 108], the EC50 lay within 0.5 to 5 µM.
The value for `CCC(C)n1ncn(-c2ccc(N3CCN(c4ccc(OC[C@@H]5CO[C@@](Cc6ccnnc6)(c6ccc(C(F)(F)F)cc6)O5)cc4)CC3)cc2)c1=O` (stereo partly shown) [Compound 134] was below 0.5 µM.
Molecule `CCC(C)n1ncn(-c2ccc(N3CCN(c4ccc(OCCO[C@@H](Cn5nccn5)c5ccccc5)cc4)CC3)cc2)c1=O` (stereo partly shown) [Compound 141] had an EC50 above 30 µM.
`CCC(C)n1ncn(-c2ccc(N3CCN(c4ccc(OC[C@@H]5CO[C@@](CCl)(c6ccc(Cl)cc6Cl)O5)cc4)CC3)cc2)c1=O` (stereo partly shown) [Compound 39] yielded an EC50 of 0.5 to 5 µM.
As for `CC(C)N1CCN(c2ccc(OC[C@@H]3CO[C@@](Cn4nccn4)(c4ccc(Cl)cc4Cl)O3)cc2)CC1` [Compound 5], the EC50 is 5 to 30 µM.
`CCC(C)n1ncn(-c2ccc(N3CCN(c4ccc(OC[C@@H]5CO[C@@](Cn6cccn6)(c6cccc(Cl)c6)O5)cc4)CC3)cc2)c1=O` (stereo partly shown) [Compound 82] came in with an EC50 below 0.5 µM.
In the case of `CC[C@@H](C)n1ncn(-c2ccc(N3CCN(c4ccc(OC[C@H]5CO[C@@](Cn6nccn6)(c6ccccc6)O5)cc4)CC3)cc2)c1=O` [Compound 184], the EC50 is below 0.5 µM.
The value for `CCC(C)n1ncn(-c2ccc(N3CCN(c4ccc(OC[C@@H]5CO[C@@](Cn6cccn6)(c6ccc(Cl)cc6)O5)cc4)CC3)cc2)c1=O` (stereo partly shown) [Compound 81] was below 0.5 µM; that for `CC(O)C(C)n1cnn(-c2ccc(N3CCN(c4ccc(OC[C@@H]5CO[C@@](Cn6nccn6)(c6ccccc6)O5)cc4)CC3)cc2)c1=O` (stereo partly shown) [Compound 16] was 5 to 30 µM; that for `CCC(C)n1ncn(-c2ccc(N3CCN(c4ccc(OC[C@@H]5CO[C@@](Cn6cccn6)(c6ccc(Cl)c(Cl)c6)O5)cc4)CC3)cc2)c1=O` (stereo partly shown) [Compound 84] was 0.5 to 5 µM.
With `CCC(C)n1ncn(-c2ccc(N3CCN(c4ccc(OC[C@@H]5CO[C@@](Cn6cccn6)(c6ccc(OC)cc6)O5)cc4)CC3)cc2)c1=O` (stereo partly shown) [Compound 87], the EC50 was below 0.5 µM.
In turn, `CCC(C)n1ncn(-c2ccc(N3CCN(c4ccc(OC[C@@H]5CO[C@@](Cn6nccn6)(c6ccccc6)O5)c(C(F)(F)F)c4)CC3)cc2)c1=O` (stereo partly shown) [Compound 59] gave a concentration for a half-maximal effect (EC50) of 5 to 30 µM.
With `O=c1n(-c2ccc(N3CCN(c4ccc(OC[C@@H]5CO[C@@](Cn6nccn6)(c6ccccc6)O5)cc4F)CC3)cc2)cnn1CC1CCCC1` [Compound 157] the figure was below 0.5 µM; with `CC(=O)N1CCN(c2ccc(OC[C@@H]3CO[C@@](Cn4nccn4)(c4ccc(Cl)cc4Cl)O3)cc2)CC1` [Compound 4], above 30 µM; with `CCC(C)n1ncn(-c2ccc(N3CCN(c4ccc(OC[C@H]5CO[C@](Cn6nccn6)(c6ccccc6)C5)cc4F)CC3)cc2)c1=O` (stereo partly shown) [Compound 148], above 30 µM.
In the case of `CCC(C)n1ncn(-c2ccc(N3CCN(c4ccc(OC[C@@H]5CO[C@@](Cn6cccn6)(c6ccccc6OC)O5)cc4)CC3)cc2)c1=O` (stereo partly shown) [Compound 85], the EC50 is 0.5 to 5 µM.
Regarding `CCC(C)n1ncn(-c2ccc(N3CCN(c4ccc(OC[C@@H]5CO[C@](Cc6ccnnc6)(c6ccccc6Cl)O5)cc4)CC3)cc2)c1=O` (stereo partly shown) [Compound 105], the EC50 is below 0.5 µM.
As for `CC[C@H](C)n1ncn(-c2ccc(N3CCN(c4ccc(OC[C@@H]5CO[C@@](Cn6cccn6)(c6ccc(C#N)cc6C)O5)cc4)CC3)cc2)c1=O` [Compound 172], the EC50 lay in the range of 0.5 to 5 µM.
As for `CC[C@H](C)n1ncn(-c2ccc(N3CCN(c4ccc(OC[C@H]5CO[C@](Cn6cccn6)(c6ccc(C#N)cc6C)O5)cc4)CC3)cc2)c1=O` [Compound 174], the EC50 was in the range of 0.5 to 5 µM.
With `CCC(C)n1ncn(-c2ccc(N3CCN(c4ccc(OC[C@@H]5CO[C@@](Cn6cccn6)(c6cccc(C)c6)O5)cc4)CC3)cc2)c1=O` (stereo partly shown) [Compound 96] the figure was below 0.5 µM; with `CCC(C)n1ncn(-c2ccc(N3CCN(c4ccc(OC[C@@H]5CO[C@](Cc6ccnnc6)(c6ccc(C(N)=O)cc6)O5)cc4)CC3)cc2)c1=O` (stereo partly drawn) [Compound 121, 4-((2S,4R)-4-((4-(4-(4-(1-sec-butyl-5-oxo-1H-1,2,4-triazol-4(5H)-yl)phenyl)piperazin-1-yl)phenoxy)methyl)-2-(pyridazin-4-ylmethyl)-1,3-dioxolan-2-yl)benzamide], 5 to 30 µM.
In the case of `CCC(C)n1ncn(-c2ccc(N3CCN(c4ccc(OC[C@H]5CO[C@@](Cn6nccn6)(c6ccccc6)O5)cc4)CC3)cc2)c1=O` (stereo partly shown) [Compound 188], the EC50 lay in the range of 5 to 30 µM.
Regarding `CCC(CC)n1ncn(-c2ccc(N3CCN(c4ccc(OC[C@@H]5CO[C@@](Cn6nccn6)(c6ccc(Cl)cc6Cl)O5)cc4F)CC3)cc2)c1=O` [Compound 164], the EC50 was below 0.5 µM.
Molecule `CCC(C)n1ncn(-c2ccc(N3CCN(c4ccc(OC[C@@H]5CO[C@@](Cc6ccnnc6)(c6ccc(C)cc6)O5)cc4)CC3)cc2)c1=O` (stereo partly shown) [Compound 138] came in with an EC50 below 0.5 µM.
For the molecule `CCC(C)n1ncn(-c2ccc(N3CCN(c4ccc(OC[C@@H]5CO[C@@](Cn6nccn6)(c6ccccc6)O5)cc4)CC3)cc2)c1=O` (stereo partly shown) [Compound 178], the EC50 is below 0.5 µM.
Molecule `CC1(CCn2ncn(-c3ccc(N4CCN(c5ccc(OC[C@@H]6CO[C@@](Cn7cncn7)(c7ccc(Br)cc7)O6)cc5)CC4)cc3)c2=O)N=N1` [Compound 151] registered an EC50 of 0.5 to 5 µM.
In the case of `CCC(C)n1ncn(-c2ccc(N3CCN(c4ccc(OC[C@@H]5CO[C@@](Cn6cccn6)(c6ccc(C#N)cc6C)O5)cc4)CC3)cc2)c1=O` (stereo partly shown) [Compound 51], the EC50 is below 0.5 µM.
The molecule `CCC(C)n1ncn(-c2ccc(N3CCN(c4ccc(OC[C@@H]5CO[C@@](Cn6nccn6)(c6ccccc6)C5)cc4)CC3)cc2)c1=O` (stereo partly shown) [Compound 143] came in with an EC50 of 5 to 30 µM.
Turning to `CCC(C)n1ncn(-c2ccc(N3CCN(c4ccc(OC[C@@H]5CO[C@](Cc6ccnnc6)(c6ccccc6C)O5)cc4)CC3)cc2)c1=O` (stereo partly shown) [Compound 116], the EC50 was below 0.5 µM.
With `CCC(CC)n1ncn(-c2ccc(N3CCN(c4ccc(OC[C@H]5CO[C@](Cn6nccn6)(c6ccccc6)C5)cc4C#N)CC3)cc2)c1=O` [Compound 144] the figure was above 30 µM; with `CCC(C)n1ncn(-c2ccc(N3CCN(c4ccc(OC[C@@H]5CO[C@@](Cn6nccn6)(c6ncccn6)O5)cc4)CC3)cc2)c1=O` (stereo partly shown) [Compound 38], above 30 µM.
`CCC(C)n1ncn(-c2ccc(N3CCN(c4ccc(OC(C)[C@@H]5CO[C@@](Cn6nccn6)(c6ccccc6)O5)cc4)CC3)cc2)c1=O` (stereo partly shown) [Compound 140] yielded an EC50 of 5 to 30 µM.
With `CCC(C)n1ncn(-c2ccc(N3CCN(C[C@@H]4CO[C@@](Cn5nccn5)(c5ccc(Cl)cc5Cl)O4)CC3)cc2)c1=O` (stereo partly shown) [Compound 7] the figure was above 30 µM; with `CCC(C)n1ncn(-c2ccc(N3CCN(c4ccc(OC[C@@H]5CO[C@@](Cn6cccn6)(c6cccc(OC)c6)O5)cc4)CC3)cc2)c1=O` (stereo partly shown) [Compound 86], below 0.5 µM.
